Patent publication US20250176602A1, “Composition for Proliferation of Bacteroides uniformis in the Intestinal Tract” (Asahi Group Holdings, Ltd., priority 2019, published 2025)

Assays:
[1] = Exercise performance test, 10 km SPIN CYCLE travel time (Example 6); type: in vivo, human; settings: after 8-week intake, about 1000 mg/day; p<0.05
Protocol: As the test subjects, 86 healthy males at the ages of 20 to 49 who have exercise habits of conducting exercise with an intensity of 5 METs or more for 30 minutes or more once or twice a week and who can continue the exercise habits during the test period as well were selected.
Among the 86 test subjects, 43 test subjects were selected as an α-cyclodextrin (αCD) intake group, and the remaining 43 test subjects were selected as a placebo group. The test subjects themselves were not informed who belonged to which group.
Test Supplements (tablets) having compositions described in Table 4 below were used. One tablet of the test supplements was of about 600 mg.
Each test subject of the αCD intake group and the placebo group was asked to take in 4 tablets of the above test supplements once a day at any timing. That is, each test subject of the α-cyclodextrin intake group was asked to take in about 1000 mg of α-cyclodextrin per day.
The intake period for the test supplements was set to 8 weeks, and the heart rate during exercise was measured, before the start of the intake, after 4-week intake, and after 8-week intake to evaluate change in heart rate. In addition, a questionnaire on fatigue feeling was conducted before the start of the intake of the test supplements and after 8-week intake, and change in travel time was evaluated. […]

[2] = Fatigue feeling mitigation test, VAS questionnaire after Aerobike exercise loading (Example 2); type: in vivo, human
Protocol: As test subjects, 21 healthy males at the ages of 20 to 49 who have exercise habits of conducting exercise with an intensity of 5 METs or more for 30 minutes or more once or twice a week and who can continue the exercise habits during the test period as well were selected.
Among the 21 test subjects, 10 test subjects were selected as an α-cyclodextrin (αCD) intake group, and the remaining 11 test subjects were selected as a placebo group. The test subjects themselves were not informed who belonged to which group.
Test Supplements (tablets) having compositions described in Table 1 below were used. One tablet of the test supplements was of about 250 mg.
Each test subject of the αCD intake group and the placebo group was asked to take in 3 tablets of the above test supplements once a day at any timing. That is, each test subject of the α-cyclodextrin intake group was asked to take in about 200 mg of α-cyclodextrin per day.
The intake period for the test supplements was set to 9 weeks, and change in gut flora was evaluated, a questionnaire on fatigue feeling was conducted, and change in travel time was evaluated, before the start of the intake, after 4-week intake, and after 8-week intake. Note that foods and beverages that are said to support sports and training, pharmaceutical products and quasi-pharmaceutical products that have recovery, prevention or amelioration of “fatigue”, “tiredness”, “physical strength” and/or “lassitude” as the indication and effects, as well as supplements in general (also including foods with functional claims and foods for specified health use) were prohibited to take in for 1 week counted from the date when the test subjects agreed to participate in the test and during the test period.
The test subjects were subjected to exercise loading (load intensity: at an intensity of 45% of the maximum exercise loading intensity of each test subject for 50 minutes) using Aerobike (trade mark) (manufactured by KONAMI Sports & Life Col., Ltd., model number AEROBIKE-75XLIII), before intake of the test supplements, after 4-week intake, and after 8-week intake. […] Regarding fatigue, a VAS (Visual Analogue Scale) questionnaire was conducted based on the VAS testing method for fatigue feeling established by Japanese Society of Fatigue Science, immediately after loading, 30 minutes after loading, and 60 minutes after loading, to investigate change in fatigue feeling with time. The items of the questionnaire were “general fatigue feeling”, “fatigue feeling of the legs”, “tension of the legs”, “general lassitude”, and “difficulty in breathing”, and the “best state (0 mm)” and the “worst state (100 mm)” in each item were based on criteria shown in Table 2. In each intake group, the amounts of change in measured value were evaluated after 4-week intake and after 8-week intake based on the measured value before intake. […] The significant test between the placebo group and the α-cyclodextrin (αCD) intake group for the general fatigue feeling was conducted by Student's t-test, and the result of the test was summarized as a graph in FIG. 2 (*: p<0.05). In addition, the results for the items “fatigue feeling of the legs”, “tension of the legs”, “general lassitude”, and “difficulty in breathing” were summarized in Table 3. In Table 3, the significant difference was studied by paired t-test for a comparison with before intake of αCD, and the significant test between the placebo group and the α-cyclodextrin (αCD) intake group was conducted by Student's t-test.

[3] = 30 minutes after exercise, after 4-week intake, about 200 mg/day
[4] = 30 minutes after exercise, after 8-week intake, about 200 mg/day
[5] = 30 minutes after exercise, before intake
[6] = 60 minutes after exercise, after 4-week intake, about 200 mg/day
[7] = 60 minutes after exercise, after 8-week intake, about 200 mg/day
[8] = 60 minutes after exercise, before intake
[9] = immediately after exercise, after 4-week intake, about 200 mg/day
[10] = immediately after exercise, after 8-week intake, about 200 mg/day
[11] = immediately after exercise, before intake

OC[C@H]1O[C@@H]2O[C@H]3[C@H](O)[C@@H](O)[C@@H](O[C@H]4[C@H](O)[C@@H](O)[C@@H](O[C@H]5[C@H](O)[C@@H](O)[C@@H](O[C@H]6[C@H](O)[C@@H](O)[C@@H](O[C@H]7[C@H](O)[C@@H](O)[C@@H](O[C@H]1[C@H](O)[C@H]2O)O[C@@H]7CO)O[C@@H]6CO)O[C@@H]5CO)O[C@@H]4CO)O[C@@H]3CO [α-cyclodextrin]
travel time for 10 km, change vs before intake, compared with placebo group [1]: significantly less | VAS Difficulty in breathing [2, 3]: 17.727 ± 15.300 mm | VAS Fatigue feeling of the legs [2, 3]: 38.002 ± 21.474 mm | VAS General lassitude [2, 3]: 27.436 ± 16.724 * mm | VAS Tension of the legs [2, 3]: 38.015 ± 21.098 mm | VAS Difficulty in breathing [2, 4]: 16.498 ± 18.581 * mm | VAS Fatigue feeling of the legs [2, 4]: 28.636 ± 21.115 ** mm | VAS General lassitude [2, 4]: 24.728 ± 21.853 * mm | VAS Tension of the legs [2, 4]: 26.662 ± 21.491 ** mm | VAS Difficulty in breathing [2, 5]: 22.702 ± 23.028 mm | VAS Fatigue feeling of the legs [2, 5]: 42.045 ± 25.730 mm | VAS General lassitude [2, 5]: 39.689 ± 21.542 mm | VAS Tension of the legs [2, 5]: 41.674 ± 26.128 mm | VAS Difficulty in breathing [2, 6]: 16.907 ± 16.405 mm | VAS Fatigue feeling of the legs [2, 6]: 31.167 ± 20.034 mm | VAS General lassitude [2, 6]: 20.932 ± 16.099 mm | VAS Tension of the legs [2, 6]: 29.904 ± 19.297 mm | VAS Difficulty in breathing [2, 7]: 12.228 ± 15.335 mm | VAS Fatigue feeling of the legs [2, 7]: 22.603 ± 21.310 * mm | VAS General lassitude [2, 7]: 17.754 ± 19.279 * mm | VAS Tension of the legs [2, 7]: 22.193 ± 22.240 mm | VAS Difficulty in breathing [2, 8]: 16.882 ± 18.668 mm | VAS Fatigue feeling of the legs [2, 8]: 34.945 ± 26.504 mm | VAS General lassitude [2, 8]: 30.096 ± 20.702 mm | VAS Tension of the legs [2, 8]: 33.394 ± 26.250 mm | general fatigue feeling after the exercise (VAS), change vs before intake, compared with placebo group ([2]; about 200 mg/day, after 4-week and 8-week intake, p<0.05): significantly decreased | VAS Difficulty in breathing [2, 9]: 30.597 ± 21.390 * mm | VAS Fatigue feeling of the legs [2, 9]: 60.911 ± 21.493 mm | VAS General lassitude [2, 9]: 41.464 ± 17.587 mm | VAS Tension of the legs [2, 9]: 58.542 ± 25.137 mm | VAS Difficulty in breathing [2, 10]: 29.033 ± 20.173 ** mm | VAS Fatigue feeling of the legs [2, 10]: 54.009 ± 23.092 mm | VAS General lassitude [2, 10]: 39.053 ± 21.314 * mm | VAS Tension of the legs [2, 10]: 55.137 ± 24.253 mm | VAS Difficulty in breathing [2, 11]: 44.516 ± 19.027 mm | VAS Fatigue feeling of the legs [2, 11]: 53.304 ± 25.421 mm | VAS General lassitude [2, 11]: 51.306 ± 20.273 mm | VAS Tension of the legs [2, 11]: 59.341 ± 24.644 mm
